The numbers were not newly measured in patent US12564203B2, “Coating composition comprising pH-sensitive polymer” (CJ CHEILJEDANG CORPORATION, priority 2020, dated 2026), which cites them from elsewhere.

Structures are written as SMILES.

For the data set the following is noted: degree of hydrophilicity (hydrophobicity) of an amino acid.
As to `NCCCC[C@H](N)C(=O)O` [lysine], the hydropathy index was −3.9.

Consider `CC[C@H](C)[C@H](N)C(=O)O` [isoleucine], for which the hydropathy index is 4.5.

Regarding `N=C(N)NCCC[C@H](N)C(=O)O` [arginine], the hydropathy index is −4.5.

`CC(C)[C@H](N)C(=O)O` [valine]: the hydropathy index was 4.2.
